Source: the supplement of paper PMC6206229
Converted amounts (≈) assume the structure as drawn.

Legend:
[1] = system: Staphylococcus aureus ATCC 700699 (MRSA); experiment: minimum inhibitory concentration; extreme values may be limits of the assay
Method in brief: (§1)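 Methicillin-susceptible and methicillin-resistant Staphylococcus aureus were assessed by broth microdilution with a resazurin read-out, compounds spanning 0 to 100 µM and incubated for 24 h at 37°C before 30 µl of 0.015% resazurin was added for 2–4 h. For the minimum inhibitory concentration, the lowest concentration whose well stayed blue rather than pink was recorded.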

[2] = system: Staphylococcus aureus ATCC 29213 (MSSA); experiment: as above
Method in brief: as §1

| SMILES | minimum inhibitory concentration [1] [µM] | minimum inhibitory concentration [2] [µM] |
| --- | --- | --- |
| O=C(Nc1ccc(N2CCNCC2)nc1)c1oc(-c2ccccc2)nc1C(F)(F)F | > 50 | > 50 |
| Cc1cc(NC(=O)c2ccc(Oc3ccc(Cl)cc3O)o2)no1 | 50 (≈ 16.7 µg/mL) | > 50 |
| COc1cccc(NC(=O)c2c(NC(=O)c3cccnc3)sc3c2CCC3)c1 | > 50 | > 50 |
| CC(C)C(NC(=O)Cc1cccc2ccccc12)C(=O)Nc1cccc(C#N)c1 (stereo unspecified) | > 50 | > 50 |
| O=C(NC1CC1)c1ccc(N2CCC(Cc3ccccc3)CC2)nc1 | > 50 | > 50 |
| CCC(NC(=O)c1ccccc1NC(=O)c1ccc(C)cc1)C(=O)OC (stereo unspecified) | > 50 | > 50 |
| Cc1cc(C(=O)Nc2ccc(-c3ccccc3)cc2)no1 | > 50 | > 50 |
| CNC(=O)C1Cc2c([nH]c3cc(Cl)ccc23)C2(CCN(CCc3ccccc3)CC2)N1 (stereo unspecified) | > 50 | > 50 |
| O=S(=O)(c1ccc(Cl)cc1)N1CCN(C(=S)NCc2ccco2)CC1 | > 50 | > 50 |
| Cc1nnc(NC(=O)c2cn(-c3ccccc3)nc2-c2ccccc2C)o1 | > 50 | > 50 |
| CC(C)(C)OC(=O)N1CCC(Cn2nc(-c3cnc4ccccc4c3)c3c(N)ncnc32)CC1 | > 50 | > 50 |
| Oc1c(I)cc(I)c2cccnc12 | 50 (≈ 19.8 µg/mL) | > 50 |
| Cc1cc(O)nc(-n2nc(C)cc2C)n1 | > 50 | > 50 |
| CCOc1ccccc1NC(C)C(=O)Nc1cc(C(F)(F)F)ccc1N1CCOCC1 (stereo unspecified) | > 50 | > 50 |
| CC(C)(C)C(=O)N(CCCCCCN1C[C@H](O)[C@@H](O)[C@H](O)[C@H]1CO)C1CCCCCC1 | > 50 | > 50 |
| COc1cc(NC(C)CCCN)c2ncccc2c1 (stereo unspecified) | > 50 | > 50 |
| Cc1[nH]c2ccccc2c1C(c1cccs1)N1CCN(C)CC1 (stereo unspecified) | 50 (≈ 16.3 µg/mL) | 50 (≈ 16.3 µg/mL) |
| Nc1ncnc2c1ncn2C[C@@H](O)[C@@H](O)C(=O)O | > 50 | > 50 |
| COc1ccc(C2(C(=O)Nc3ccc(Br)cc3)CCCC2)cc1 | > 50 | > 50 |
| CC(=O)Oc1ccccc1C(=O)Nc1ncc([N+](=O)[O-])s1 | > 50 | > 50 |
| c1csc(-c2cnc3sc(NCC4CCOCC4)nn23)c1 | > 50 | > 50 |
| CC1=Nc2ccc(Cl)cc2C(O)(c2ccc(C)cc2)N1CCN1CCCCC1 (stereo unspecified) | > 50 | > 50 |
| CC(C)n1nc(-c2cc3c(Cl)cccc3[nH]2)c2c(N)ncnc21 | > 50 | > 50 |
| OCCc1ccc(Nc2nccc(-c3nnc4ccccn34)n2)cc1 | > 50 | > 50 |
| CCC(Sc1nc2ccccc2o1)C(=O)Nc1nccs1 (stereo unspecified) | 50 (≈ 16 µg/mL) | > 50 |
| COc1cccc(CC(=O)N2CCC(n3c(C)nc4ccc(F)cc43)CC2)c1 | > 50 | > 50 |
| CCc1nn(C)c(C(=O)NCc2ccc(Oc3ccc(C)cc3)cc2)c1Cl | > 50 | > 50 |

| SMILES | minimum inhibitory concentration [1] [µM] | minimum inhibitory concentration [2] [µM] |
| --- | --- | --- |
| COc1ccccc1CNC(=O)c1cc(C2CC2)nc2c1cnn2C(C)C | > 50 | > 50 |
| Cc1ccc(S(=O)(=O)n2cc(-c3ccnc(N)c3)c3cc(Br)cnc32)cc1 | > 50 | > 50 |
| COc1cncc(-c2cncc(N3CCN(c4ccncc4)CC3)n2)c1 | > 50 | > 50 |
| COc1ccc(-c2cc(NC(=O)c3ccc(F)cc3Cl)ccc2OC)cc1 | > 50 | > 50 |
| CCS(=O)(=O)N(Cc1ccco1)Cc1cc2ccc(C)cc2nc1O | > 50 | > 50 |
| COc1ccc(-c2nc(-c3cccc(NC(=O)Cc4ccc(F)cc4)c3)no2)cc1OC | > 50 | > 50 |
| O=C(NC1CCCCC1)N1CCN(Cc2ccc3c(c2)OCO3)CC1 | > 50 | > 50 |
| Cc1cc(C)n2nc(C(=O)Nc3cc(C(F)(F)F)ccc3N3CCOCC3)nc2n1 | > 50 | > 50 |
| Cc1nn(C)c(C)c1NS(=O)(=O)c1c(Cl)cc(-c2ccnc(N3CCNCC3)c2)cc1Cl | > 50 | > 50 |
| c1cc(C2=NCCN2)cc(-c2cc(-c3ccc(C4=NCCN4)cc3)no2)c1 | > 50 | > 50 |
| COC(=O)c1cccc2oc(-c3cccc(OC)c3NC(=O)c3cc(-c4ccccc4)on3)nc12 | > 50 | > 50 |
| FC(F)(F)c1cccc(-c2nc3c(NCc4ccncc4)nccc3[nH]2)c1 | > 50 | > 50 |
| Cc1nn2c(O)c3c(nc2c1-c1ccc(F)cc1)CCCC3 | > 50 | > 50 |
| CCOC(=O)c1noc(N)c1-c1ccccc1 | 50 (≈ 11.6 µg/mL) | 50 (≈ 11.6 µg/mL) |
| Cc1nc(-c2cccc(NCc3ccccc3)c2)[nH]c1C | 50 (≈ 13.9 µg/mL) | 50 (≈ 13.9 µg/mL) |
| N=C(N)c1ccc(OCCCCCOc2ccc(C(=N)N)cc2)cc1 | > 50 | 12.5 (≈ 4.26 µg/mL) |
| COc1nc2ccc(Br)cc2cc1[C@@H](c1ccccc1)[C@@](O)(CCN(C)C)c1cccc2ccccc12 | > 50 | > 50 |
| CC(C)(CN)c1nc(-c2ccc(Cl)c(O)c2)c(-c2ccnc(N)n2)[nH]1 | > 50 | > 50 |
| O=C(N[C@H](Cc1ccccc1)C(=O)Nc1ccccc1N1CCOCC1)c1cccs1 | > 50 | > 50 |
| Brc1c(-c2ccc3c(c2)OCO3)nc2ncccn12 | > 50 | > 50 |
| CCCCc1ccc(NC(=O)Nc2ccc(O[C@H]3CCCC[C@@H]3N(C)c3ccccc3)c(F)c2)cc1 | > 50 | > 50 |
| COc1cccc(-c2cc3c(Nc4cccnc4)nccc3[nH]2)c1 | > 50 | > 50 |
| O=[N+]([O-])c1cn2c(n1)OC[C@@H](OCc1ccc(OC(F)(F)F)cc1)C2 | > 50 | > 50 |
| NC(=O)c1cc(-c2ccsc2)ccc1OCCOc1ccccc1 | > 50 | > 50 |
| CC(C)/N=c1\cc2n(-c3ccc(Cl)cc3)c3ccccc3nc-2cc1Nc1ccc(Cl)cc1 | > 50 | > 50 |
| O=C(Nc1nc(-c2ccccn2)cs1)C1CC1c1ccccc1F (stereo unspecified) | > 50 | > 50 |
